Earlier results in US7579360B2, “Triazolopyridine 11-beta hydroxysteroid dehydrogenase type I inhibitors” (Bristol-Myers Squibb Company, priority 2005, dated 2009).

Biological target: T1, 11beta-HSD1 (Homo sapiens, UniProt P28845)
T1 construct: host or cells: patients with type 2 diabetes (liver, in vivo)
Details: mildly overweight individuals with type 2 diabetes, seven days, versus placebo

T1 sequence (P28845 whole entry): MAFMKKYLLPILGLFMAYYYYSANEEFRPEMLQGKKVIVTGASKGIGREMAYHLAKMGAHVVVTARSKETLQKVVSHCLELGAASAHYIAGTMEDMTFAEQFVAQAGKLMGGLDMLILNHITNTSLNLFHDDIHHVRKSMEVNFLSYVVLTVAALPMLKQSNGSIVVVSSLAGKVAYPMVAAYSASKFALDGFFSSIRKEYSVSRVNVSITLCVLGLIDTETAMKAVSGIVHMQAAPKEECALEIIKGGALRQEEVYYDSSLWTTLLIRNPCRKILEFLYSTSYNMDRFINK

hepatic glucose production: decrease
Structure (SMILES): CC1(C)[C@@H](OC(=O)CCC(=O)O)CC[C@]2(C)[C@H]3C(=O)C=C4[C@@H]5C[C@@](C)(C(=O)O)CC[C@]5(C)CC[C@@]4(C)[C@]3(C)CC[C@@H]12 [carbenoxolone]
